In publication PMC10108353, “Design and Pharmacological Characterization of α4β1 Integrin Cyclopeptide Agonists: Computational Investigation of Ligand Determinants for Agonism versus Antagonism” (Journal of Medicinal Chemistry, 2023):
Read-outs that look alike come from different tables or passages of the source. Starred links: 1 amine or outer side, 2 acyl side, 3 side chain; linkers in the order of their positions; H or OH if unused. Positions of bridges follow the written chain, without caps; N, C: chain ends. Non-standard residues stand in square brackets, D forms with d. Residues, ends and D or L forms follow the SMILES beside them. Groups on a side chain read outwards from the residue. *: point of attachment. dPhe(4-NH2) = Nc1ccc(C[C@@H](N)C(=O)O)cc1; Phe(4-NH2) = Nc1ccc(C[C@H](N)C(=O)O)cc1; NH(2-Me-phenyl) = Cc1ccccc1N*; Phg = N[C@H](C(=O)O)c1ccccc1; d(β3hA) = C[C@@H](N)CC(=O)O; CO = O=C([*:1])[*:2]; NHPr = CCCN*

Key:
[1] = biological target: T1, α4β1 integrin (Homo sapiens, UniProt P05556+P13612); assay: Jurkat E6.1 cell adhesion to VCAM-1; conditions: agonist = adhesion index >1, antagonist = adhesion index <1
Description: (§1) Cells were seeded in 96-well plates coated with the specific natural human recombinant ligands (Table 1) and allowed to adhere in the presence of increasing concentrations (10^–10 to 10^–4 M) of the synthesized CPPs before the determination of the number of adherent cells (as described in Experimental Section).
(§2) For adhesion assays on Jurkat E6.1, RPMI8866, or HL60 cells, black 96-well plates were coated overnight at 4 °C with VCAM-1 or ICAM-1 or MAdCAM-1 (5 μg/mL) or Fg (10 μg/mL). The cells were counted, stained with CellTracker green CMFDA (12.5 μM, 30 min at 37 °C, Life Technologies), and after three washes, were preincubated with increasing concentrations of new CPP (10^–10 to 10^–4 M) or with the vehicle (methanol) for 30 min at 37 °C. Then cells were plated (500 000/well) on coated wells and incubated for 30 min at 37 °C. After three washes, adhered cells were lysed with 0.5% Triton X-100 in PBS (30 min at 4 °C) and fluorescence was measured (Ex485 nm/Em535 nm) in an EnSpire Multimode Plate Reader (PerkinElmer, Waltham, MA). For adhesion assays mediated by α5β1 integrin, 96-well plates were coated by passive adsorption with FN (10 μg/mL) overnight at 4 °C. K562 cells were counted and preincubated with various concentrations of the peptides or with the vehicle (methanol) for 30 min at RT. Afterward, the cells were plated (50 000 cells/well) and incubated at RT for 1 h. The wells were then washed with 1% BSA in PBS (phosphate-buffered saline) to take off nonadherent cells, and 50 μL of hexosaminidase substrate was added; after addition of 100 μL of stopping solution, the plates were read at 405 nm. In both types of adhesion assay, the number of adherent cells was determined by comparison with a standard curve made in the same plate. Experiments were carried out in quadruplicate and repeated at least three times.
(§3) Jurkat E6.1 (expressing α4β1 and αLβ2 integrin), K562 (expressing α5β1 integrin) and HL60 (expressing αMβ2 integrin) cell lines were purchased from ATCC (Rockville, MD, USA); these cells were routinely cultured in RPMI-1640 (Life Technologies) supplemented with glutamine and 10% FBS.
(§4) Cells were grown at 37 °C under 5% CO2 humidified atmosphere.

[2] = tested on: ERK1/2 phosphorylation mediated by α4β1 integrin; assay: ERK1/2 phosphorylation in Jurkat E6.1 cells (Western blot); type: cell-based; conditions: compound 10^–7 to 10^–9 M, no FN, vs vehicle
Description: Intracellular signaling generated by the interaction of ECM components with α4β1 integrin produces an increase in the phosphorylation of cytoplasmatic second messengers such as ERK1/2 that contribute to α4 integrin-mediated cell functions.
Western blot analysis was performed as previously described, with the following modifications. […] On the other hand, after 1 h incubation with integrin antagonists, the cells were then seeded on FN (10 μg/mL) coated plates for 1 h. Integrin agonists were not incubated with FN. At the end of the incubation time, Jurkat E6.1 cells were lysed on ice using a mammalian protein extraction reagent (M-PER; Pierce, Rockford, IL) supplemented with a phosphatase inhibitor cocktail. Protein extracts were quantified using a BCA protein assay kit (Pierce), separated by 12% SDS-PAGE gel, transferred onto nitrocellulose membranes, and immunoblotted with anti-phospho-ERK1/2 (1:1000) (Cell Signaling Technology, Danvers, MA) or anti-total ERK1/2 antibodies (1:2500) (Cell Signaling Technology). Protocols for digital image acquisition and analysis have been previously described.[73] Densitometric analysis of the bands is reported (mean ± SD; n = 3); the amount of phosphorylated ERK1/2 (pERK1/2) is normalized to that of total ERK1/2 (totERK1/2). Experiments were replicated independently at least three times. Statistical analyses were performed using one-way ANOVA and the post hoc Newman–Keuls test.

[3] = biological target: T1, α4β1 integrin; assay: Jurkat E6.1 cell adhesion to FN; conditions: for agonist or antagonist behaviour, FN/Jurkat E6.1 α4β1: agonist = adhesion index >1, antagonist = adhesion index <1
Description: as §1, §2, §3, §4

[4] = amide bond, 16-membered ring, HBTU/HOBt/DIPEA, DMF, 25.0 °C

T1 sequence (P13612 34-1032): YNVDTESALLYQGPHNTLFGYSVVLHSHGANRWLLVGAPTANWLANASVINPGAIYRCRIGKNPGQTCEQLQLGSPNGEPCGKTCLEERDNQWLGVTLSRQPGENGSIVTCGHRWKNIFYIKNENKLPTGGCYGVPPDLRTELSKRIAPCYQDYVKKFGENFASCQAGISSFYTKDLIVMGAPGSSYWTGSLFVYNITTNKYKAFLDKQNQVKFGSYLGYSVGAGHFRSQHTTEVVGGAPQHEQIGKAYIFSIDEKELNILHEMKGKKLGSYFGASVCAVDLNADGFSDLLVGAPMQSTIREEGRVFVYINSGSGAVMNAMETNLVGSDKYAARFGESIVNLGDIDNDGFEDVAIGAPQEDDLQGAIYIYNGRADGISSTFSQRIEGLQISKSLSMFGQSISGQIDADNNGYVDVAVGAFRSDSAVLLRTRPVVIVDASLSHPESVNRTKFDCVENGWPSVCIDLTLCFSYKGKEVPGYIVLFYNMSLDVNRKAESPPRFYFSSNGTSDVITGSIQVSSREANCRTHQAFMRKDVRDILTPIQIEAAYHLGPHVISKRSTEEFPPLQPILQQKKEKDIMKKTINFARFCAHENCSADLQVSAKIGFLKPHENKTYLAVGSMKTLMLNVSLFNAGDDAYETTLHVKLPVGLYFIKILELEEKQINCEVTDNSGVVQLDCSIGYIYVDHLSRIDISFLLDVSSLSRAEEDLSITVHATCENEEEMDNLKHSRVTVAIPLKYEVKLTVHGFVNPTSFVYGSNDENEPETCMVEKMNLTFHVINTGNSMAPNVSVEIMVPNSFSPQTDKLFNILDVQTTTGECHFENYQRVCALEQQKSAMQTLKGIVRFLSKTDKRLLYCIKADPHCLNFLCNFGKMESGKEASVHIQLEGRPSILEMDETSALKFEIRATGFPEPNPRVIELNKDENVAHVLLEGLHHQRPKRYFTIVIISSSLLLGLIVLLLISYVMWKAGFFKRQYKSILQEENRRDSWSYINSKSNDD
T1 sequence (P05556 21-798): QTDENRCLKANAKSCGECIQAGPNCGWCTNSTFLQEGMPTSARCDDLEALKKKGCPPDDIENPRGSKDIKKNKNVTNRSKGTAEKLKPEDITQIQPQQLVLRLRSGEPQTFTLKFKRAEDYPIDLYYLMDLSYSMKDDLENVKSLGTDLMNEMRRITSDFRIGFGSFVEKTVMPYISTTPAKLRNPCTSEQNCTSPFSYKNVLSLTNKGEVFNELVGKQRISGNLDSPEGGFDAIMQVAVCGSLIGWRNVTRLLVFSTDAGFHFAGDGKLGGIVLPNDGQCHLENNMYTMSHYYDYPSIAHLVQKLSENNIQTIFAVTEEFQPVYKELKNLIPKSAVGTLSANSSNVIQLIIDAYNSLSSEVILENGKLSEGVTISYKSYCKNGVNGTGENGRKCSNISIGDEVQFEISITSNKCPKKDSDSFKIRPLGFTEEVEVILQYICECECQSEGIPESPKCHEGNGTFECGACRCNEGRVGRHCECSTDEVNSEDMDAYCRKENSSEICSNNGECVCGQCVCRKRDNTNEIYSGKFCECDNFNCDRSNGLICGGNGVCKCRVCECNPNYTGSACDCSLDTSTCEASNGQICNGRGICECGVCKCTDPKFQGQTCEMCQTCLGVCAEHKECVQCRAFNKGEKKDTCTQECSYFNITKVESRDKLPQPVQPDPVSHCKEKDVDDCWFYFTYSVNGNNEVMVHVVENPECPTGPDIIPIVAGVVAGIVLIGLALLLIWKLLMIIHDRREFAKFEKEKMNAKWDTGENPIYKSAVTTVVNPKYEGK

Structure (SMILES): Cc1ccccc1NC(=O)Nc1ccc(C[C@H]2NC(=O)C[C@H](C(=O)O)NC(=O)[C@H](C(C)C)NC(=O)[C@H](CC(=O)O)NC(=O)[C@H](CC(C)C)NC2=O)cc1 [3d, c[(R)-Phu-Leu-Asp-Val-(R)-isoAsp]] ([dPhe(4-NH2)]([CO-NH(2-Me-phenyl)])LDV[dD]-OH; lactam N-5 (inferred))
- agonist or antagonist behaviour, VCAM-1/Jurkat E6.1 α4β1 [1]: agonist
- effect on ERK1/2 phosphorylation, compound administered alone [2]: significant concentration-dependent increase of ERK1/2 phosphorylation
- agonist or antagonist behaviour, FN/Jurkat E6.1 α4β1 [3]: agonist

Structure (SMILES): Cc1ccccc1NC(=O)Nc1ccc(C[C@@H]2NC(=O)C[C@@H](C)NC(=O)[C@H](C(C)C)NC(=O)[C@H](CC(=O)O)NC(=O)[C@H](CC(C)C)NC2=O)cc1 [11a, c[(S)-Phu-Leu-Asp-Val-(R)-β^3homoAla]] (cyclo([Phe(4-NH2)]([CO-NH(2-Me-phenyl)])LDV[d(β3hA)]))
- IC50 [3]: > 5 µM

Structure (SMILES): Cc1ccccc1NC(=O)Nc1ccc(C[C@H]2NC(=O)C[C@@H](C(=O)O)NC(=O)[C@H](C(C)C)NC(=O)[C@H](C)NC(=O)[C@H](CC(C)C)NC2=O)cc1 [12c, c[(R)-Phu-Leu-Ala-Val-(S)-isoAsp]] ([dPhe(4-NH2)]([CO-NH(2-Me-phenyl)])LAVD-OH; lactam N-5 (inferred))
- agonist or antagonist behaviour, FN/Jurkat E6.1 α4β1 [3]: agonist

Structure (SMILES): Cc1ccccc1NC(=O)Nc1ccc(C[C@@H]2NC(=O)C[C@@H](C(=O)OCc3ccccc3)NC(=O)[C@H](C(C)C)NC(=O)[C@H](CC(=O)OCc3ccccc3)NC(=O)[C@H](CC(C)C)NC2=O)cc1 [H-Asp(OBn)-Val-isoAsp(OBn)-Phu-Leu-OH?]
- ring closure, yield after HPLC ([4]; from H-Asp(OBn)-Val-isoAsp(OBn)-Phu-Leu-OH?): 0%

Structure (SMILES): Cc1ccccc1NC(=O)Nc1ccc(C[C@@H]2NC(=O)C[C@@H](C(=O)OCc3ccccc3)NC(=O)[C@H](C(C)C)NC(=O)[C@H](C)NC(=O)[C@H](CC(C)C)NC2=O)cc1 [H-Phu-Leu-Ala-Val-isoAsp(OBn)-OH]
- ring closure, yield after HPLC ([4]; from H-Phu-Leu-Ala-Val-isoAsp(OBn)-OH): 37%

Structure (SMILES): Cc1ccccc1NC(=O)Nc1ccc(C[C@@H]2NC(=O)C[C@@H](C)NC(=O)[C@H](C(C)C)NC(=O)[C@H](CC(=O)OCc3ccccc3)NC(=O)[C@H](CC(C)C)NC2=O)cc1 [H-Phu-Leu-Asp(OBn)-Val-(R)-β3homoAla-OH]
- ring closure, yield after HPLC ([4]; from H-Phu-Leu-Asp(OBn)-Val-(R)-β3homoAla-OH): 50%

Structure (SMILES): Cc1ccccc1NC(=O)Nc1ccc(C[C@@H]2NC(=O)C[C@H](C(=O)OCc3ccccc3)NC(=O)[C@H](C(C)C)NC(=O)[C@H](CC(=O)OCc3ccccc3)NC(=O)[C@H](CC(C)C)NC2=O)cc1 [H-Phu-Leu-Asp(OBn)-Val-disoAsp(OBn)-OH]
- ring closure, yield after HPLC ([4]; from H-Phu-Leu-Asp(OBn)-Val-disoAsp(OBn)-OH): 19%

Structure (SMILES): CCCNC(=O)[C@@H]1CC(=O)N[C@@H](Cc2ccc(NC(=O)Nc3ccccc3C)cc2)C(=O)N[C@@H](CC(C)C)C(=O)N[C@@H](CC(=O)OCc2ccccc2)C(=O)N[C@@H](C(C)C)C(=O)N1 [H-Phu-Leu-Asp(OBn)-Val-isoAsp(NHPr)-OH?]
- ring closure, yield after HPLC ([4]; from H-Phu-Leu-Asp(OBn)-Val-isoAsp(NHPr)-OH?): 27%

Structure (SMILES): Cc1ccccc1NC(=O)Nc1ccc(C[C@@H]2NC(=O)C[C@@H](C(=O)OCc3ccccc3)NC(=O)[C@H](C(C)C)NC(=O)[C@H](CC(=O)OCc3ccccc3)NC(=O)[C@H](CC(C)C)NC2=O)cc1 [H-Phu-Leu-Asp(OBn)-Val-isoAsp(OBn)-OH]
- ring closure, yield after HPLC ([4]; from H-Phu-Leu-Asp(OBn)-Val-isoAsp(OBn)-OH): 28%

Structure (SMILES): Cc1ccccc1NC(=O)Nc1ccc(C[C@@H]2NC(=O)C[C@@H](C(=O)OCc3ccccc3)NC(=O)[C@H](C(C)C)NC(=O)[C@H](C)NC(=O)[C@H](Cc3ccccc3)NC2=O)cc1 [H-Phu-Phe-Ala-Val-isoAsp(OBn)-OH]
- ring closure, yield after HPLC ([4]; from H-Phu-Phe-Ala-Val-isoAsp(OBn)-OH): 48%

Structure (SMILES): Cc1ccccc1NC(=O)Nc1ccc(C[C@@H]2NC(=O)C[C@@H](C(=O)OCc3ccccc3)NC(=O)[C@H](C(C)C)NC(=O)[C@H](CC(=O)OCc3ccccc3)NC(=O)[C@H](Cc3ccccc3)NC2=O)cc1 [H-Phu-Phe-Asp(OBn)-Val-isoAsp(OBn)-OH]
- ring closure, yield after HPLC ([4]; from H-Phu-Phe-Asp(OBn)-Val-isoAsp(OBn)-OH): 25%

Structure (SMILES): Cc1ccccc1NC(=O)Nc1ccc(C[C@H]2NC(=O)C[C@@H](C(=O)OCc3ccccc3)NC(=O)[C@H](C(C)C)NC(=O)[C@H](C)NC(=O)[C@H](CC(C)C)NC2=O)cc1 [H-dPhu-Leu-Ala-Val-isoAsp(OBn)-OH]
- ring closure, yield after HPLC ([4]; from H-dPhu-Leu-Ala-Val-isoAsp(OBn)-OH): 15%

Structure (SMILES): Cc1ccccc1NC(=O)Nc1ccc(C[C@H]2NC(=O)C[C@@H](C(=O)OCc3ccccc3)NC(=O)[C@H](c3ccccc3)NC(=O)[C@H](CC(=O)OCc3ccccc3)NC(=O)[C@H](CC(C)C)NC2=O)cc1 [H-dPhu-Leu-Asp(OBn)-Phg-isoAsp(OBn)-OH?]
- ring closure, yield after HPLC ([4]; from H-dPhu-Leu-Asp(OBn)-Phg-isoAsp(OBn)-OH?): 43%

Structure (SMILES): Cc1ccccc1NC(=O)Nc1ccc(C[C@H]2NC(=O)C[C@@H](C)NC(=O)[C@H](C(C)C)NC(=O)[C@H](CC(=O)OCc3ccccc3)NC(=O)[C@H](CC(C)C)NC2=O)cc1 [H-dPhu-Leu-Asp(OBn)-Val-(R)-β3homoAla-OH]
- ring closure, yield after HPLC ([4]; from H-dPhu-Leu-Asp(OBn)-Val-(R)-β3homoAla-OH): 33%

Structure (SMILES): Cc1ccccc1NC(=O)Nc1ccc(C[C@H]2NC(=O)C[C@H](C(=O)OCc3ccccc3)NC(=O)[C@H](C(C)C)NC(=O)[C@H](CC(=O)OCc3ccccc3)NC(=O)[C@H](CC(C)C)NC2=O)cc1 [H-dPhu-Leu-Asp(OBn)-Val-disoAsp(OBn)-OH]
- ring closure, yield after HPLC ([4]; from H-dPhu-Leu-Asp(OBn)-Val-disoAsp(OBn)-OH): 34%

Structure (SMILES): Cc1ccccc1NC(=O)Nc1ccc(C[C@H]2NC(=O)C[C@@H](C(=O)OCc3ccccc3)NC(=O)[C@H](C(C)C)NC(=O)[C@H](CC(=O)OCc3ccccc3)NC(=O)[C@H](CC(C)C)NC2=O)cc1 [H-dPhu-Leu-Asp(OBn)-Val-isoAsp(OBn)-OH]
- ring closure, yield after HPLC ([4]; from H-dPhu-Leu-Asp(OBn)-Val-isoAsp(OBn)-OH): 29%

Structure (SMILES): Cc1ccccc1NC(=O)Nc1ccc(C[C@@H]2NC(=O)C[C@@H](C(=O)OCc3ccccc3)NC(=O)[C@H](C(C)C)NC(=O)[C@H](CC(=O)OCc3ccccc3)NC(=O)[C@H](CC(C)C)NC2=O)cc1 [H-isoAsp(OBn)-Phu-Leu-Asp(OBn)-Val-OH]
- ring closure, yield after HPLC ([4]; from H-isoAsp(OBn)-Phu-Leu-Asp(OBn)-Val-OH): 0%

Structure (SMILES): CCCNC(=O)[C@@H]1CC(=O)N[C@@H](Cc2ccc(NC(=O)Nc3ccccc3C)cc2)C(=O)N[C@@H](CC(C)C)C(=O)N[C@@H](CC(=O)O)C(=O)N[C@@H](C(C)C)C(=O)N1 [compound 13, c[(S)-PhU-Leu-Asp-Val-(S)-isoAsp(nPr)]] ([Phe(4-NH2)]([CO-NH(2-Me-phenyl)])LDVD-NHPr; lactam N-5 (inferred))
- IC50 [3]: > 5 µM
- agonist or antagonist behaviour, FN/Jurkat E6.1 α4β1 [3]: complete loss of activity

Structure (SMILES): Cc1ccccc1NC(=O)Nc1ccc(C[C@@H]2NC(=O)C[C@@H](C(=O)O)NC(=O)[C@H](C(C)C)NC(=O)[C@H](CC(=O)O)NC(=O)[C@H](Cc3ccccc3)NC2=O)cc1 [compound 14, c[(S)-Phu-Phe-Asp-Val-(S)-isoAsp]] ([Phe(4-NH2)]([CO-NH(2-Me-phenyl)])FDVD-OH; lactam N-5)
- IC50 [3]: > 5 µM

Structure (SMILES): Cc1ccccc1NC(=O)Nc1ccc(C[C@H]2NC(=O)C[C@@H](C(=O)O)NC(=O)[C@H](c3ccccc3)NC(=O)[C@H](CC(=O)O)NC(=O)[C@H](CC(C)C)NC2=O)cc1 [compound 16, c[(R)-Phu-Leu-Asp-Phg-(S)-isoAsp]] ([dPhe(4-NH2)]([CO-NH(2-Me-phenyl)])LD[Phg]D-OH; lactam N-5)
- IC50 [3]: > 5 µM
